Data reported in patent US20250353891A1 (MEDIMMUNE LIMITED, priority 2022, published 2025).
Where two headings read alike, the source gives them in different places. Starred links: 1 amine or outer side, 2 acyl side, 3 side chain; linkers in the order of their positions; H or OH if unused. Non-standard residues stand in square brackets, D forms with d. Residues, ends and D or L forms follow the SMILES beside them. Groups on a side chain read outwards from the residue. *: point of attachment. C18 diacid = O=C(O)CCCCCCCCCCCCCCCCC(=O)*; γGlu = O=C(O)[C@H](CCC(=O)[*:2])N[*:1]; αMeF = C[C@](N)(Cc1ccccc1)C(=O)O; AEEA = NCCOCCOCC(=O)O; Aib = CC(C)(N)C(=O)O

Key:
[1] = target: human glucagon receptor (hGCGR) (Homo sapiens, UniProt P47871); assay: cAMP production (HTRF) in CHO cells expressing hGCGR; format: cell-based; parameters: expressed in transfected cells; conditions: cAMP in CHO hGCGR cells, geometric mean, read-out: hGluc-R EC50
How it was run: (§1)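 Potency values represent EC50 from 4-parameter logistic curves of HTRF % Delta F signal. Receptor-expressing CHO cells (hGCGR 2×10^5 cells/mL, hGLP-1R 1×10^5 cells/mL) were exposed for 30 min at room temperature before two-step cAMP detection.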

[2] = target: human GLP-1 receptor (hGLP-1R) (Homo sapiens, UniProt P43220); assay: cAMP production (HTRF) in CHO cells expressing hGLP-1R; format: cell-based; parameters: expressed in transfected cells; conditions: for EC50: cAMP in CHO hGLP-1R cells, geometric mean, read-out: hGLP-1R EC50; for % Relative Potency Ratio: % GLP-1R activity relative to GLP-1 / % GlucR activity relative to glucagon
How it was run: as §1

[3] = Table 6, peptides modified at position 17
[4] = Table 7, peptides modified at position 20

human GLP-1 receptor (hGLP-1R), sequence (P43220 24-463): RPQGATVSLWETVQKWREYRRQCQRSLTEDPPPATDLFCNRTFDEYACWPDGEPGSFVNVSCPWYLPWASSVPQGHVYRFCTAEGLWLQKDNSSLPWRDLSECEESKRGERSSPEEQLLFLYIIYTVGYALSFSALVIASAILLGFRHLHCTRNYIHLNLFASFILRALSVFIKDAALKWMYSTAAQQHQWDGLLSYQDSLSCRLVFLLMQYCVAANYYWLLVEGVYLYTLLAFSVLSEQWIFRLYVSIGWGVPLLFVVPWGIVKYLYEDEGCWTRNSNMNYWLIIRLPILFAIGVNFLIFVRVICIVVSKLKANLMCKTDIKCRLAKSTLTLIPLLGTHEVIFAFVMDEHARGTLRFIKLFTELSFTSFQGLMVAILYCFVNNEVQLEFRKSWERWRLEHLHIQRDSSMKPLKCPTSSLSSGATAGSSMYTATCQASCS
human glucagon receptor (hGCGR), sequence (P47871 26-477): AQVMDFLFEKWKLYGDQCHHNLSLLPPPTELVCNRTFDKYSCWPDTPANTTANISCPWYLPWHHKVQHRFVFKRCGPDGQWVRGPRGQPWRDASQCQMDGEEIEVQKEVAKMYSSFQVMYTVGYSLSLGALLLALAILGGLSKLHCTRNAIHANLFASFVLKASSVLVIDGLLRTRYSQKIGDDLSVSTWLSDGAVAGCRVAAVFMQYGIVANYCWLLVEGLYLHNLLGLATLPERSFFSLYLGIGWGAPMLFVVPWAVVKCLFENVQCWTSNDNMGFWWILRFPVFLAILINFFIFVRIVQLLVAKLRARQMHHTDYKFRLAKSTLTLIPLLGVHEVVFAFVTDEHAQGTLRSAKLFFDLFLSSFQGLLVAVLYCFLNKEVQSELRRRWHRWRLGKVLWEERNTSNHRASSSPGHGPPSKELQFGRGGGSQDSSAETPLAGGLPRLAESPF

Row | SMILES | EC50 [1, 3] | EC50 [2, 3] | % Relative Potency Ratio ([2]; Table 6) | EC50 [1, 4] | EC50 [2, 4] | % Relative Potency Ratio ([2]; Table 7)
1 | CC(C)C[C@H](NC(=O)[C@H](Cc1c[nH]c2ccccc12)NC(=O)[C@H](C)NC(=O)[C@@H](NC(=O)[C@H](Cc1ccccc1)NC(=O)[C@H](CC(=O)O)NC(=O)[C@H](CCCNC(=N)N)NC(=O)[C@H](C)NC(=O)[C@H](CCCNC(=N)N)NC(=O)[C@H](CCCCNC(=O)COCCOCCNC(=O)COCCOCCNC(=O)CC[C@H](NC(=O)CCCCCCCCCCCCCCCCC(=O)O)C(=O)O)NC(=O)[C@@H](NC(=O)[C@H](CC(=O)O)NC(=O)[C@H](CC(C)C)NC(=O)[C@](C)(Cc1ccccc1)NC(=O)[C@H](CCCCN)NC(=O)[C@H](CO)NC(=O)[C@@H](NC(=O)[C@H](CC(=O)O)NC(=O)[C@H](CO)NC(=O)[C@@H](NC(=O)[C@H](Cc1ccccc1)NC(=O)[C@@H](NC(=O)CNC(=O)[C@H](CCC(N)=O)NC(=O)C(C)(C)NC(=O)[C@@H](N)Cc1c[nH]cn1)[C@@H](C)O)[C@@H](C)O)C(C)C)[C@@H](C)O)C(C)C)C(=O)N[C@@H](CC(C)C)C(=O)N[C@@H](CCC(=O)O)C(=O)NC(C)(C)C(=O)NCC(=O)O [Peptide 200] (H-H[Aib]QGTFTSDVSK[αMeF]LDTK([AEEA-AEEA-γGlu-C18 diacid])RARDFVAWLLE[Aib]G-OH) | 0.0977 nM | 0.0227 nM | 8.5 |  |  | 
2 | CC(C)C[C@H](NC(=O)[C@H](Cc1c[nH]c2ccccc12)NC(=O)[C@H](C)NC(=O)[C@@H](NC(=O)[C@H](Cc1ccccc1)NC(=O)[C@H](CC(=O)O)NC(=O)[C@H](CCCNC(=N)N)NC(=O)[C@H](C)NC(=O)[C@H](CCCNC(=N)N)NC(=O)[C@H](CCCCNC(=O)COCCOCCNC(=O)COCCOCCNC(=O)CC[C@H](NC(=O)CCCCCCCCCCCCCCCCC(=O)O)C(=O)O)NC(=O)[C@@H](NC(=O)[C@H](CC(=O)O)NC(=O)[C@H](CC(C)C)NC(=O)[C@](C)(Cc1ccccc1)NC(=O)[C@H](CCCCN)NC(=O)[C@H](CO)NC(=O)[C@@H](NC(=O)[C@H](CC(=O)O)NC(=O)[C@H](CO)NC(=O)[C@@H](NC(=O)[C@H](Cc1ccccc1)NC(=O)[C@@H](NC(=O)CNC(=O)[C@H](CCC(N)=O)NC(=O)C(C)(C)NC(=O)[C@@H](N)Cc1c[nH]cn1)[C@@H](C)O)[C@@H](C)O)C(C)C)[C@@H](C)O)C(C)C)C(=O)N[C@@H](CCC(=O)O)C(=O)N[C@@H](C)C(=O)NC(C)(C)C(=O)NCC(=O)O [Peptide 201] (H-H[Aib]QGTFTSDVSK[αMeF]LDTK([AEEA-AEEA-γGlu-C18 diacid])RARDFVAWLEA[Aib]G-OH) | 0.183 nM | 0.0227 nM | 15.9 |  |  | 
3 | CC(C)C[C@H](NC(=O)[C@H](Cc1c[nH]c2ccccc12)NC(=O)[C@H](CCC(N)=O)NC(=O)[C@@H](NC(=O)[C@H](Cc1ccccc1)NC(=O)[C@H](CC(=O)O)NC(=O)[C@H](CCCNC(=N)N)NC(=O)[C@H](C)NC(=O)[C@H](CCCNC(=N)N)NC(=O)[C@H](CCCCNC(=O)COCCOCCNC(=O)COCCOCCNC(=O)CC[C@H](NC(=O)CCCCCCCCCCCCCCCCC(=O)O)C(=O)O)NC(=O)[C@@H](NC(=O)[C@H](CC(=O)O)NC(=O)[C@H](CC(C)C)NC(=O)[C@](C)(Cc1ccccc1)NC(=O)[C@H](CCCCN)NC(=O)[C@H](CO)NC(=O)[C@@H](NC(=O)[C@H](CC(=O)O)NC(=O)[C@H](CO)NC(=O)[C@@H](NC(=O)[C@H](Cc1ccccc1)NC(=O)[C@@H](NC(=O)CNC(=O)[C@H](CCC(N)=O)NC(=O)C(C)(C)NC(=O)[C@@H](N)Cc1c[nH]cn1)[C@@H](C)O)[C@@H](C)O)C(C)C)[C@@H](C)O)C(C)C)C(=O)N[C@@H](CCC(=O)O)C(=O)N[C@@H](C)C(=O)NC(C)(C)C(=O)NCC(=O)O [Peptide 202] (H-H[Aib]QGTFTSDVSK[αMeF]LDTK([AEEA-AEEA-γGlu-C18 diacid])RARDFVQWLEA[Aib]G-OH; N-terminus assumed) | 0.242 nM | 0.0178 nM | 26.9 |  |  | 
4 | CC[C@H](C)[C@H](NC(=O)[C@H](Cc1c[nH]c2ccccc12)NC(=O)[C@H](CCC(N)=O)NC(=O)[C@@H](NC(=O)[C@H](Cc1ccccc1)NC(=O)[C@H](CC(=O)O)NC(=O)[C@H](CCCCNC(=O)COCCOCCNC(=O)COCCOCCNC(=O)CC[C@H](NC(=O)CCCCCCCCCCCCCCCCC(=O)O)C(=O)O)NC(=O)[C@H](C)NC(=O)[C@H](C)NC(=O)[C@H](CCCNC(=N)N)NC(=O)[C@H](CO)NC(=O)[C@H](CC(=O)O)NC(=O)[C@H](CC(C)C)NC(=O)[C@](C)(Cc1ccccc1)NC(=O)[C@H](CCCCN)NC(=O)[C@H](CO)NC(=O)[C@@H](NC(=O)[C@H](CC(=O)O)NC(=O)[C@H](CO)NC(=O)[C@@H](NC(=O)[C@](C)(Cc1ccccc1)NC(=O)[C@H](CO)NC(=O)CNC(=O)[C@H](Cc1c[nH]cn1)NC(=O)C(C)(C)NC(=O)[C@@H](N)Cc1c[nH]cn1)[C@@H](C)O)C(C)C)C(C)C)C(=O)N[C@@H](C)C(=O)N[C@@H](CC(N)=O)C(=O)N[C@H](C(N)=O)[C@@H](C)O [Peptide 205] (H-H[Aib]HGS[αMeF]TSDVSK[αMeF]LDSRAAK([AEEA-AEEA-γGlu-C18 diacid])DFVQWIANT-NH2) |  |  |  | 0.00814 nM | 0.0299 nM | 0.5

The remaining lines, values ahead:

Row | EC50 [1, 3] | EC50 [2, 3] | % Relative Potency Ratio ([2]; Table 6) | EC50 [1, 4] | EC50 [2, 4] | % Relative Potency Ratio ([2]; Table 7) | SMILES
5 |  |  |  | 0.0182 nM | 0.0709 nM | 0.5 | CC[C@H](C)[C@H](NC(=O)[C@H](Cc1c[nH]c2ccccc12)NC(=O)[C@H](CCC(N)=O)NC(=O)[C@@H](NC(=O)[C@H](Cc1ccccc1)NC(=O)[C@H](CC(=O)O)NC(=O)[C@H](CCCCNC(=O)COCCOCCNC(=O)COCCOCCNC(=O)CC[C@H](NC(=O)CCCCCCCCCCCCCCCCC(=O)O)C(=O)O)NC(=O)[C@H](C)NC(=O)C(C)(C)NC(=O)[C@H](CCCNC(=N)N)NC(=O)[C@H](CO)NC(=O)[C@H](CC(=O)O)NC(=O)[C@H](CC(C)C)NC(=O)[C@](C)(Cc1ccccc1)NC(=O)[C@H](CCCCN)NC(=O)[C@H](CO)NC(=O)[C@@H](NC(=O)[C@H](CC(=O)O)NC(=O)[C@H](CO)NC(=O)[C@@H](NC(=O)[C@](C)(Cc1ccccc1)NC(=O)[C@H](CO)NC(=O)CNC(=O)[C@H](Cc1c[nH]cn1)NC(=O)C(C)(C)NC(=O)[C@@H](N)Cc1c[nH]cn1)[C@@H](C)O)C(C)C)C(C)C)C(=O)N[C@@H](C)C(=O)N[C@@H](CC(N)=O)C(=O)N[C@H](C(N)=O)[C@@H](C)O [Peptide 206] (H-H[Aib]HGS[αMeF]TSDVSK[αMeF]LDSR[Aib]AK([AEEA-AEEA-γGlu-C18 diacid])DFVQWIANT-NH2)
6 |  |  |  | 0.0962 nM | 0.178 nM | 1.1 | CC[C@H](C)[C@H](NC(=O)C(C)(C)NC(=O)[C@H](CCC(N)=O)NC(=O)[C@@H](NC(=O)[C@H](Cc1ccccc1)NC(=O)[C@H](CC(=O)O)NC(=O)[C@H](CCCCNC(=O)COCCOCCNC(=O)COCCOCCNC(=O)CC[C@H](NC(=O)CCCCCCCCCCCCCCCCC(=O)O)C(=O)O)NC(=O)[C@H](C)NC(=O)[C@H](C)NC(=O)[C@H](CCC(N)=O)NC(=O)[C@H](CO)NC(=O)[C@H](CC(=O)O)NC(=O)[C@H](CC(C)C)NC(=O)[C@](C)(Cc1ccccc1)NC(=O)[C@H](CCCCN)NC(=O)[C@H](CO)NC(=O)[C@@H](NC(=O)[C@H](CC(=O)O)NC(=O)[C@H](CO)NC(=O)[C@@H](NC(=O)[C@](C)(Cc1ccccc1)NC(=O)[C@H](CO)NC(=O)CNC(=O)[C@H](Cc1c[nH]cn1)NC(=O)C(C)(C)NC(=O)[C@@H](N)Cc1c[nH]cn1)[C@@H](C)O)C(C)C)C(C)C)C(=O)N[C@@H](C)C(=O)N[C@@H](CC(N)=O)C(=O)N[C@H](C(N)=O)[C@@H](C)O [Peptide 207] (H-H[Aib]HGS[αMeF]TSDVSK[αMeF]LDSQAAK([AEEA-AEEA-γGlu-C18 diacid])DFVQ[Aib]IANT-NH2)
7 |  |  |  | 0.658 nM | 0.0644 nM | 20.2 | CC[C@H](C)[C@H](NC(=O)[C@H](Cc1c[nH]c2ccccc12)NC(=O)[C@H](CCC(N)=O)NC(=O)[C@@H](NC(=O)[C@H](Cc1ccccc1)NC(=O)[C@H](CC(=O)O)NC(=O)[C@H](CCCCNC(=O)CC[C@H](NC(=O)CCCCCCCCCCCCCCCCC(=O)O)C(=O)O)NC(=O)[C@H](C)NC(=O)[C@H](C)NC(=O)[C@H](CCCNC(=N)N)NC(=O)[C@H](CO)NC(=O)[C@H](CC(=O)O)NC(=O)[C@H](CC(C)C)NC(=O)[C@](C)(Cc1ccccc1)NC(=O)[C@H](CCCCN)NC(=O)[C@H](CO)NC(=O)[C@@H](NC(=O)[C@H](CC(=O)O)NC(=O)[C@H](CO)NC(=O)[C@@H](NC(=O)[C@H](Cc1ccccc1)NC(=O)[C@@H](NC(=O)CNC(=O)[C@H](CCC(N)=O)NC(=O)C(C)(C)NC(=O)[C@@H](N)Cc1c[nH]cn1)[C@@H](C)O)[C@@H](C)O)C(C)C)C(C)C)C(=O)N[C@@H](C)C(=O)N[C@@H](CC(N)=O)C(=O)N[C@H](C(N)=O)[C@@H](C)O [Peptide 208]
8 |  |  |  | 0.0426 nM | 0.127 nM | 0.7 | CC[C@H](C)[C@H](NC(=O)[C@H](Cc1c[nH]c2ccccc12)NC(=O)[C@H](CCC(=O)O)NC(=O)[C@@H](NC(=O)[C@H](Cc1ccccc1)NC(=O)[C@H](CC(=O)O)NC(=O)[C@H](CCCCNC(=O)COCCOCCNC(=O)COCCOCCNC(=O)CC[C@H](NC(=O)CCCCCCCCCCCCCCCCC(=O)O)C(=O)O)NC(=O)[C@H](C)NC(=O)[C@H](C)NC(=O)[C@H](CCC(N)=O)NC(=O)[C@H](CO)NC(=O)[C@H](CC(=O)O)NC(=O)[C@H](CC(C)C)NC(=O)[C@](C)(Cc1ccccc1)NC(=O)[C@H](CCCCN)NC(=O)[C@H](CO)NC(=O)[C@@H](NC(=O)[C@H](CC(=O)O)NC(=O)[C@H](CO)NC(=O)[C@@H](NC(=O)[C@](C)(Cc1ccccc1)NC(=O)[C@H](CO)NC(=O)CNC(=O)[C@H](Cc1c[nH]cn1)NC(=O)C(C)(C)NC(=O)[C@@H](N)Cc1c[nH]cn1)[C@@H](C)O)C(C)C)C(C)C)C(=O)N[C@@H](C)C(=O)N[C@@H](CC(N)=O)C(=O)N[C@H](C(N)=O)[C@@H](C)O [Peptide 209] (H-H[Aib]HGS[αMeF]TSDVSK[αMeF]LDSQAAK([AEEA-AEEA-γGlu-C18 diacid])DFVEWIANT-NH2)
